According to patent US20070265170A1, “DETECTION, PREVENTION AND TREATMENT OF OVARIAN CANCER” (priority 2006, published 2007):

B1: Ceruloplasmine (protein, UniProt P00450 20-1065, looked up)
Ceruloplasmin: KEKHYYIGIIETTWDYASDHGEKKLISVDTEHSNIYLQNGPDRIGRLYKKALYLQYTDETFRTTIEKPVWLGFLGPIIKAETGDKVYVHLKNLASRPYTFHSHGITYYKEHEGAIYPDNTTDFQRADDKVYPGEQYTYMLLATEEQSPGEGDGNCVTRIYHSHIDAPKDIASGLIGPLIICKKDSLDKEKEKHIDREFVVMFSVVDENFSWYLEDNIKTYCSEPEKVDKDNEDFQESNRMYSVNGYTFGSLPGLSMCAEDRVKWYLFGMGNEVDVHAAFFHGQALTNKNYRIDTINLFPATLFDAYMVAQNPGEWMLSCQNLNHLKAGLQAFFQVQECNKSSSKDNIRGKHVRHYYIAAEEIIWNYAPSGIDIFTKENLTAPGSDSAVFFEQGTTRIGGSYKKLVYREYTDASFTNRKERGPEEEHLGILGPVIWAEVGDTIRVTFHNKGAYPLSIEPIGVRFNKNNEGTYYSPNYNPQSRSVPPSASHVAPTETFTYEWTVPKEVGPTNADPVCLAKMYYSAVEPTKDIFTGLIGPMKICKKGSLHANGRQKDVDKEFYLFPTVFDENESLLLEDNIRMFTTAPDQVDKEDEDFQESNKMHSMNGFMYGNQPGLTMCKGDSVVWYLFSAGNEADVHGIYFSGNTYLWRGERRDTANLFPQTSLTLHMWPDTEGTFNVECLTTDHYTGGMKQKYTVNQCRRQSEDSTFYLGERTYYIAAVEVEWDYSPQREWEKELHHLQEQNVSNAFLDKGEFYIGSKYKKVVYRQYTDSTFRVPVERKAEEEHLGILGPQLHADVGDKVKIIFKNMATRPYSIHAHGVQTESSTVTPTLPGETLTYVWKIPERSGAGTEDSACIPWAYYSTVDQVKDLYSGLIGPLIVCRRPYLKVFNPRRKLEFALLFLVFDENESWYLDDNIKTYSDHPEKVNKDDEEFIESNKMHAINGRMFGNLQGLTMHVGDEVNWYLMGMGNEIDLHTVHFHGHSFQYKHRGVYSSDVFDIFPGTYQTLEMFPRTPGIWLLHCHVTDHIHAGMETTYTVLQNEDTKSG

Assays:
[1] = system: anti-carbohydrate antibodies in sera of metastatic breast cancer patients; assay: Glycan array with sera of metastatic breast cancer patients; assay type: binding, human; conditions: sera diluted 1:25; for binding by antibodies from metastatic breast cancer patients: 9 MBC patients; for level of serum antibodies against the glycan in MBC patients compared to healthy individuals: relative fluorescence, FIG. 8-9
Experimental: Individual (not pooled) sera were collected from 9 patients who were diagnosed with metastatic breast cancer (MBC). Blood samples were collected before treatment, so that therapeutic intervention would not interfere with patient immune responses. One patient with breast cancer but with good prognosis (IDC, Stage 1) was also included in the study. As control, or “healthy” sera, sera from ten healthy individuals, 5 female and 5 male, with no known malignancies was collected.
Sera were diluted 1:25 with PBS containing 3% BSA, and placed on the glycan array slide in humidified chamber at room temperature for 90 min. The glycan array slide was then rinsed gently with PBS/0.05% Tween, incubated with biotinylated goat antibody against human IgG, IgM and IgA, rinsed in PBS/0.05% Tween, and incubated with streptavidin-Alexa488 fluorescent dye. Following rinses in PBS/0.05% Tween and H2O, glycan array slides were dried and scanned using the commercial DNA array scanner. […] Signal to background was typically greater 50:1 and no background subtractions were performed. Data were plotted using MS Excel software.

chicken ST6GalNAc-I = target: T1, chicken ST6GalNAc-I (Gallus gallus, UniProt Q92183); assay: chST6GalNAc-I activity on small acceptor molecules; assay type: biochemical; conditions: α-D-galacto derivatives as acceptors
T1 construct: made in house; host or cells: insect cells
T1 sequence (Q92183 whole entry): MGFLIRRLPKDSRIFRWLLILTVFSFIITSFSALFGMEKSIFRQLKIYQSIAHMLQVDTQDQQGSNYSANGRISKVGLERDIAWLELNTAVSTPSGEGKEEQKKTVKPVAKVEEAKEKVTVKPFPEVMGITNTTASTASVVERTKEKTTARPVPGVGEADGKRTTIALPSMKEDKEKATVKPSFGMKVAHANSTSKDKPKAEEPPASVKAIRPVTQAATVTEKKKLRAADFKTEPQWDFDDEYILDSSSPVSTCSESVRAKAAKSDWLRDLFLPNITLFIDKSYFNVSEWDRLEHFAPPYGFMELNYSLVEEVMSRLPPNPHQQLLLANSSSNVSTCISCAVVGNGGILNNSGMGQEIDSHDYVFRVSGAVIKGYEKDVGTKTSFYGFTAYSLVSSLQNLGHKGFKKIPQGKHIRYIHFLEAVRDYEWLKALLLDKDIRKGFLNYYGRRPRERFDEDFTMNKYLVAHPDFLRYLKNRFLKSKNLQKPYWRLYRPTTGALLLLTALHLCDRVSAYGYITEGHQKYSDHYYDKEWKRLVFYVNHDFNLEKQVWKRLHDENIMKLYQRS
Description: The inventors have previously reported the cloning, expression, and characterization of chicken ST6GalNAc-I and its use in preparative synthesis of the O-linked sialoside antigens, STn-, α(2-6)SiaT-, α(2-3)SiaT- and Di-SiaT-antigen. Blixt, O.; Allin, K.; Pereira, L.; Datta, A. and Paulson, J. C., J. Am. Chem. Soc. 2002, 124, 5739-5746. Briefly, the recombinant enzyme was expressed in insect cells and purified by CDP-sepharose affinity chromatography to generate approximately 10 U/L of cell culture.

β3GlcNAcT = β3GlcNAcT acceptor specificity; conditions: acceptor substrate; lactose (4) = 100%
[2] = system: Human anti-HIV 2G12 monoclonal antibody; assay: Glycan array binding of 2G12; conditions: 2G12 30 μg/mL pre-complexed with goat anti-human-IgG-FITC
Description: Glycan array fabrication.
Glycan Binding Protein binding assay.
Image acquisition and signal processing. […] Data were plotted using MS Excel software.

Row | Molecule | binding by antibodies from metastatic breast cancer patients [1] | level of serum antibodies against the glycan in MBC patients compared to healthy individuals [1] | further results
1 | Fa2Ab3Anb3Aa4Ab4G#sp3 Globo-H [Glycan 97] | bind | higher than in the healthy individuals | –
2 | NJa6ANa#sp2 Neu5Gc6GalNAc (STn) [Glycan 155] | bind | – | –
3 | NNa6ANa#sp2 6SiaβGalNAc [Glycan 190] | bind | significantly higher levels | –
4 | CC(=O)N[C@H]1C(O)O[C@H](CO)[C@H](O)[C@@H]1O (stereo partly drawn) [D-GalNAc] | – | – | chST6GalNac-I Activity, cpm (chicken ST6GalNAc-I): 0 cpm; chST6GalNac-I Activity, nmol/mg × min^−1 (chicken ST6GalNAc-I): 0.00 nmol/mg × min^−1
5 | Ab3ANb4[NNa3]Ab4Gb#sp1 GM1 [Glycan 58] | bind | higher than in the healthy individuals | –
6 | GNb3Ab4Gb#sp1 LNT-2 [Glycan 123] | bind | higher than in the healthy individuals | –
7 | OCC1O[C@@H](O)C(O)[C@@H](O)[C@@H]1O[C@@H]1OC(CO)[C@H](O)[C@H](O)C1O (stereo partly drawn) [Compound 4] | – | – | Relative enzyme activity (%) β(1-3)GlcNAcT-activity (β3GlcNAcT): 100%
8 | Man-9#aa Man9-aminoacid [Glycan 145] | – | – | 2G12 binding to arrayed glycan [2]: smaller level of binding
9 | B1 | bind | significantly higher levels | –
